Test results from US20230295201A1 (Gilead Sciences, Inc., priority 2020, published 2023).
Where two headings read alike, the source gives them in different places.

Columns and labels:
Format in all cases: cell-based
RSV strain A2 = experiment: RSV HEp-2 EC50 (infectious cytopathic cell protection assay); settings: HEp-2 cells, RSV A2, 4 days, read-out: RSV HEp-2 EC50
How it was run: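 Percent inhibition of RSV-induced cytopathic effect came from remaining cell viability (CellTiter-Glo luminescence) after 4 days at 37° C. Compounds in 3-fold serial dilutions were exposed to an infectious mix of titered A2 virus and HEp-2 cells at 50,000/ml, with 0% and 100% inhibition control standards.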

RSV A2 = experiment: RSV NHBE EC50 (RSV A2 antiviral assay in normal human bronchial epithelial cells); settings: NHBE cells, RSV A2, 4 days, read-out: RSV NHBE EC50
HRV16 = HRV16 HELA EC50 (cytopathic effect in H1-HeLa cells)
How it was run: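 Read-out is luminescent cell viability (CellTiter-Glo) after 96 h of infection at 33 °C, scaled between uninfected and infected-untreated wells. Before infection with titrated virus, compounds went onto H1-HeLa cells as triplicate 3-fold dilution series.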

DENV2 replicon = experiment: DENV-2 Huh-7 Rep EC50 (replicon luminescence); settings: Huh-7 replicon cells, 48 hours, read-out: DENV-2 Huh-7 Rep EC50
How it was run: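 EC50 derived from luminescence dose-response, normalised to DMSO-only 0% inhibition wells, after 1.5 h with EnduRen substrate. Compounds were first exposed for 48 h at 37° C to DENV2 replicon Huh-7 cells (5,000/well).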

[1] = human respiratory syncytial virus, HEp-2, 96 h
[2] = human respiratory syncytial virus, NHBE, 96 h
[3] = 96 h, H1-HeLa cells, 33° C., read-out: HRV16 HELA EC50
[4] = Dengue virus, DENV2, Huh-7, 48 h

Row | Structure (SMILES) | EC50 (RSV strain A2; [1]) [nM] | EC50 (RSV A2; [2]) [nM] | EC50 (HRV16; [3]) [nM] | EC50 (DENV2 replicon; [4]) [nM] | EC50 (RSV A2) [nM] | EC50 (DENV2 replicon) [nM] | EC50 (RSV strain A2) [nM] | EC50 (HRV16; H1-HeLa cells, 96 h, 33° C.; read-out: HRV16 HELA EC50) [nM]
1 | C[C@H](NP(=O)(OC[C@@]1(C#N)O[C@@H](c2ccc3c(N)ncnn23)[C@H](O)[C@@H]1O)Oc1ccccc1)C(=O)OCC1CC1 (mixture of isomers) [Example 8, (2S)-cyclopropylmethyl 2-(((((2R,3S,4R,5S)-5-(4-aminopyrrolo[2,1-f][1,2,4]triazin-7-yl)-2-cyano-3,4-dihydroxytetrahydrofuran-2-yl)methoxy)(phenoxy)phosphoryl)amino)propanoate] | 182 | 351 | 472 | 37300 | – | – | – | –
2 | CC(C)OC(=O)[C@H](C)NP(=O)(OC[C@@]1(C#N)O[C@@H](c2ccc3c(N)ncnn23)[C@H](O)[C@@H]1O)Oc1ccccc1 (mixture of isomers) [Example 77, Isopropyl ((((2R,3S,4R,5S)-5-(4-aminopyrrolo[2,1-f][1,2,4]triazin-7-yl)-2-cyano-3,4-dihydroxytetrahydrofuran-2-yl)methoxy)(phenoxy)phosphoryl)-L-alaninate] | 464 | 1150 | 1420 | 49800 | – | – | – | –
3 | CCC(CC)COC(=O)[C@H](CC)NP(=O)(OC[C@@]1(C#N)O[C@@H](c2ccc3c(N)ncnn23)[C@H](O)[C@@H]1O)Oc1ccccc1 (mixture of isomers) [Example 88, (2S)-2-ethylbutyl 2-(((((2R,3S,4R,5S)-5-(4-aminopyrrolo[2,1-f][1,2,4]triazin-7-yl)-2-cyano-3,4-dihydroxytetrahydrofuran-2-yl)methoxy)(phenoxy)phosphoryl)amino)butanoate] | 336 | 36 | 1060 | 62000 | – | – | – | –
4 | CC[C@H](NP(=O)(OC[C@@]1(C#N)O[C@@H](c2ccc3c(N)ncnn23)[C@H](O)[C@@H]1O)Oc1ccccc1)C(=O)OC1CCCCC1 (mixture of isomers) [Example 103, (2S)-cyclohexyl 2-(((((2R,3S,4R,5S)-5-(4-aminopyrrolo[2,1-f][1,2,4]triazin-7-yl)-2-cyano-3,4-dihydroxytetrahydrofuran-2-yl)methoxy)(phenoxy)phosphoryl)amino)butanoate] | 938 | 548 | 2440 | > 50000 | – | – | – | –
5 | CCCCCCCCCCCC(=O)OCCNP(=O)(OC[C@@]1(C#N)O[C@@H](c2ccc3c(N)ncnn23)[C@H](O)[C@@H]1O)Oc1ccccc1 (mixture of isomers) [Example 181, 2-(((((2R,3S,4R,5S)-5-(4-aminopyrrolo[2,1-f][1,2,4]triazin-7-yl)-2-cyano-3,4-dihydroxytetrahydrofuran-2-yl)methoxy)(phenoxy)phosphoryl)amino)ethyl dodecanoate] | 8 | 43 | 35 | 5250 | – | – | – | –
6 | C[C@H](N[P@](=O)(OC[C@@]1(C#N)O[C@@H](c2ccc3c(N)ncnn23)[C@H](O)[C@@H]1O)Oc1ccccc1)C(=O)OC1CCCCC1 (single isomer, unassigned) [Example 6] | 88 | 124 | 227 | 2940 | – | – | – | –
7 | C[C@H](N[P@](=O)(OC[C@@]1(C#N)O[C@@H](c2ccc3c(N)ncnn23)[C@H](O)[C@@H]1O)Oc1ccccc1)C(=O)O[C@H]1CC[C@H](C(F)(F)F)CC1 (single isomer, unassigned) [Example 18] | 114 | 91 | 212 | 12300 | – | – | – | –
8 | C[C@H](N[P@](=O)(OC[C@@]1(C#N)O[C@@H](c2ccc3c(N)ncnn23)[C@H](O)[C@@H]1O)Oc1ccccc1)C(=O)O[C@H]1CC[C@H](C(C)(C)C)CC1 (single isomer, unassigned) [Example 22] | 103 | 36 | 200 | 5750 | – | – | – | –
9 | CCC(CC)COC(=O)[C@H](C)N[P@](=O)(OC[C@@]1(C#N)O[C@@H](c2ccc3c(N)ncnn23)[C@H](O)[C@@H]1O)Oc1ccccc1 (single isomer, unassigned) [Example 25] | 26 | 127 | 135 | 2860 | – | – | – | –
10 | C[C@H](NP(=O)(OC[C@@]1(C#N)O[C@@H](c2ccc3c(N)ncnn23)[C@H](O)[C@@H]1O)Oc1ccccc1)C(=O)OCC1CCCCC1 (single isomer, unassigned) [Example 247] | 44 | – | 317 | – | 510 | 12000 | – | –
11 | C[C@H](NP(=O)(OC[C@@]1(C#N)O[C@@H](c2ccc3c(N)ncnn23)[C@H](O)[C@@H]1O)Oc1ccccc1)C(=O)OCC1CCCCC1 (single isomer, unassigned) [Example 248] | – | – | – | – | 2620 | 4720 | 26 | 174
12 | C[C@H](NP(=O)(OC[C@@]1(C#N)O[C@@H](c2ccc3c(N)ncnn23)[C@H](O)[C@@H]1O)Oc1ccccc1)C(=O)OCCC(C)(C)C (single isomer, unassigned) [Example 252] | 26 | – | – | – | 31 | 7000 | – | –
13 | C[C@H](NP(=O)(OC[C@@]1(C#N)O[C@@H](c2ccc3c(N)ncnn23)[C@H](O)[C@@H]1O)Oc1ccccc1)C(=O)OCCC(C)(C)C (single isomer, unassigned) [Example 253] | – | – | – | – | 70 | 2780 | 20 | –
14 | C[C@H](NP(=O)(OC[C@@]1(C#N)O[C@@H](c2ccc3c(N)ncnn23)[C@H](O)[C@@H]1O)Oc1ccccc1)C(=O)OC1CCCCC1 (stereo partly drawn) [Example 4, (2S)-cyclohexyl 2-(((((2R,3S,4R,5S)-5-(4-aminopyrrolo[2,1-f][1,2,4]triazin-7-yl)-2-cyano-3,4-dihydroxytetrahydrofuran-2-yl)methoxy)(phenoxy)phosphoryl)amino)propanoate] | 96 | 76 | 510 | – | – | – | – | –
15 | C[C@H](NP(=O)(OC[C@@]1(C#N)O[C@@H](c2ccc3c(N)ncnn23)[C@H](O)[C@@H]1O)Oc1ccccc1)C(=O)OCC(C)(C)C (stereo partly drawn) [Example 92, (2S)-neopentyl 2-(((((2R,3S,4R,5S)-5-(4-aminopyrrolo[2,1-f][1,2,4]triazin-7-yl)-2-cyano-3,4-dihydroxytetrahydrofuran-2-yl)methoxy)(phenoxy)phosphoryl)amino)propanoate] | 64 | 73 | 225 | – | – | – | – | –
16 | C[C@H](NP(=O)(OC[C@@]1(C#N)O[C@@H](c2ccc3c(N)ncnn23)[C@H](O)[C@@H]1O)Oc1ccccc1)C(=O)OCCC(C)(C)C (stereo partly drawn) [Example 251, 3,3-dimethylbutyl ((((2R,3S,4R,5S)-5-(4-aminopyrrolo[2,1-f][1,2,4]triazin-7-yl)-2-cyano-3,4-dihydroxytetrahydrofuran-2-yl)methoxy)(phenoxy)phosphoryl)-L-alaninate] | 8 | – | – | 3530 | – | – | – | –
17 | CCC(C)(C)COC(=O)[C@H](C)NP(=O)(OC[C@@]1(C#N)O[C@@H](c2ccc3c(N)ncnn23)[C@H](O)[C@@H]1O)Oc1ccccc1 (stereo partly drawn) [Example 254, 2,2-dimethylbutyl ((((2R,3S,4R,5S)-5-(4-aminopyrrolo[2,1-f][1,2,4]triazin-7-yl)-2-cyano-3,4-dihydroxytetrahydrofuran-2-yl)methoxy)(phenoxy)phosphoryl)-L-alaninate] | 17 | 46 | – | 13000 | – | – | – | –
